Experimental data reported in patent US20100196469A1, “Pharmaceutical Formulation containing an HMG-COA Reductase Inhibitor and method for the preparation thereof” (PHARMATHEN S.A., priority 2007, published 2010).
Structures can show the parent of a compound that is named as a salt.

Tests used:
Format in all cases: physicochemical
[1] = Stability of unpacked tablets at 40° C.±2° C. and 75%±5% RH (impurities); conditions: 40°/75 RH
Protocol: (§1) One of the main objects of the present invention was to prepare a product with acceptable stability. For this reason 3 batches of each composition were exposed to normal, intermediate and accelerated stability studies according to the current ICH guidelines.
The tablets of the above compositions were exposed at a temperature of 40° C.±2° C. and relative humidity of 75%±5% without being packed in any type of container or blister. The tablets were tested in predetermined time intervals. The results for each composition are described in the stability table (TABLE 1).

[2] = Stability after preparation and after 3 months in HDPE containers, normal and intermediate conditions (impurities); conditions: for Atorvastatin Amide / Desfluoro: limit NMT 0.3%; for Atorvastatin Diepoxide: limit NMT 0.6%; for Diketo1,2-Diol + Diketoepoxide: limit NMT 1.20%; for Lactone: limit NMT 2%; for Total: total impurities; for Unknown: unknown impurity
Protocol: as §1
Subsequently, the tablets of compositions 2 were packed into white opaque, HDPE plastic […] C.±2° C. and relative humidity of 65%±5% for intermediate conditions. The results for composition 2 and of the active ingredient directly after preparation and after 3 months stability are described in the stability table below (TABLE 3).

[3] = Compatibility test of Atorvastatin alone and Atorvastatin with Attapulgite at 40° C./75% RH (impurities)

`CC(C)c1c(C(=O)Nc2ccccc2)c(-c2ccccc2)c(-c2ccc(F)cc2)n1CC[C@@H](O)C[C@@H](O)CC(=O)O` (relative stereo) [Atorvastatin, [R—(R*,R*)]-2-(4-fluorophenyl)-b,d-dihydroxy-5-(1-methylethyl)-3-phenyl-4[(phenylamino)carbonyl]-1H -pyrrole-1-heptanoic acid, calcium salt (2:1) trihydrate] showed an Atorvastatin Amide [1] of 0.07%, an Atorvastatin Diepoxide [1] of 0.34% and a Desfluoro [1] of 0.08%. It also gave a Diketo1,2-Diol + Diketoepoxide [1] of 0.69%, a Lactone [1] of 0.45% and a Total ([1]; total impurities) of 1.87%. The “Atorvastatin Amide” value ([2]; 0 months) was 0.06%, the Desfluoro ([2]; 0 months) was 0.06% and the “Atorvastatin Diepoxide” value ([2]; 0 months) was 0.25%. The “Diketo1,2-Diol + Diketoepoxide” value ([2]; 0 months) was 0.84%, the Lactone ([2]; 0 months) was 0.07% and the Total ([2]; 0 months) was 1.69%. For the same compound, the Unknown ([2]; 0 months) was 0.34%, the “Atorvastatin Amide” value ([2]; 3 months 25° C./60% RH) was 0.06% and the Desfluoro ([2]; 3 months 25° C./60% RH) was 0.03%. The “Atorvastatin Diepoxide” value ([2]; 3 months 25° C./60% RH) was 0.30%, the “Diketo1,2-Diol + Diketoepoxide” value ([2]; 3 months 25° C./60% RH) was 0.92% and the Lactone ([2]; 3 months 25° C./60% RH) was 0.05%. For the same compound, the Total ([2]; 3 months 25° C./60% RH) was 1.96%, the Unknown ([2]; 3 months 25° C./60% RH) was 0.38% and the “Atorvastatin Amide” value ([2]; 3 months 30° C./65% RH) was 0.06%. The Desfluoro ([2]; 3 months 30° C./65% RH) was 0.03%, the “Atorvastatin Diepoxide” value ([2]; 3 months 30° C./65% RH) was 0.38% and the “Diketo1,2-Diol + Diketoepoxide” value ([2]; 3 months 30° C./65% RH) was 1.10%. It also gave a Lactone ([2]; 3 months 30° C./65% RH) of 0.05%, a Total ([2]; 3 months 30° C./65% RH) of 2.12% and an Unknown ([2]; 3 months 30° C./65% RH) of 0.4%. The “Diketo1,2-Diol + Diketoepoxide” value ([3]; limit 1.20%) was 0.39%, the “Atorvastatin Amide” value ([3]; limit NMT 0.3%) was 0.05% and the Desfluoro ([3]; limit NMT 0.3%) was 0.07%. The “Methyl Ester” value ([3]; limit NMT 0.3%) was 0.01%, the “Atorvastatin Diepoxide” value ([3]; limit NMT 0.6%) was 0.20% and the Lactone ([3]; limit NMT 2%) was 0.34%. The Total ([3]; total impurities) was 1.29%.
